Values quoted from earlier work as cited in patent US20160008277A1, “CO-PACKAGED DRUG PRODUCTS” (Lightlake Therapeutics Inc., priority 2014, published 2016).

Assays:
rat = settings: intravenous; cited from earlier work
mouse = settings: intravenous; cited from earlier work
newborn rats = settings: acute subcutaneous; cited from earlier work

C=CCN1CC[C@]23c4c5ccc(O)c4O[C@H]2C(=O)CC[C@@]3(O)[C@H]1C5.Cl [naloxone hydrochloride, 17-allyl-4,5a-epoxy-3,14-dihydroxymorphinan-6-one hydrochloride]
LD50 (rat): 109 ± 4 mg/kg
LD50 (mouse): 150 ± 5 mg/kg
LD50 (95% CL) (newborn rats): 260 (228-296) mg/kg
